Test results reported in US20060117411A1, “Enhancing plant pathogen resistance via increasing BiP levels” (priority 1998, published 2006).

Experiments:
Format in all cases: in vivo, Nicotiana tabacum
[1] = system: BiP mRNA; test: SA spraying of tobacco plants, Northern blot of BiP mRNA
Description: (§1) It has been shown that SA is involved in the induction of PR genes (reviewed by Malamy and Klessig, 1992) and that this signal molecule also induces the expression of ER chaperones (Denecke et al, 1995). We wanted to investigate whether ER chaperone induction is a consequence of the high synthesis rates of PR genes and used BiP as a model system. Tobacco plants were sprayed with SA (5 mM) and the exact timing of the SA-mediated induction of PR-gene PRI was compared to that of BiP. PR1 was chosen as a representative marker for SA-mediated induction of PR genes as its response to SA is faster and more pronounced than that of acidic chitinase, basic chitinase and basic β-1.3 glucanase (Vidal et al, 1997). […] In contrast SA-induced transcription of PR1 starts only after 6-8 hours and continues to accumulate upto 16 hours after treatment. At this time-point, BiP mRNA levels start to decrease again. We have shown previously that PR1 continuous to accumulate until 48 hours after SA treatment using the same experimental system (Vidal et al, 1997). […] BiP protein levels were also shown to increase (FIG. 7B), with a significant increase noticeable after 4-6 hours of induction.
To investigate further similarities and differences in the SA-mediated induction of BiP and PR genes, we tested if the presence of light is required for the induction. The rationale for this experiment was derived from the observation that SA inhibits catalase, resulting in an increase of active oxygen species in the plant, which would then induce PR genes such as PR1 (Chen et al, 1993). Despite the fact that the inhibition of catalase activity alone is not the key route by which PR1 is induced during SA-treatment (Chamnongpol et al, 1996), a cooperative interaction of SA and H2O2 might lead to the strong induction of PR1 (Leon et al, 1995, Chen et al, 1995). […] Tobacco plants were thus sprayed with SA (5 mM) and incubated in the presence and absence of light for 6 and 16 hours. […] The data also confirm that BiP mRNA levels increase transiently and a significant decrease in mRNA levels is detectable after 16 hours of treatment (see also FIG. 7).
(§2) We have shown that the SA-induced expression of PR1 is inhibited in a concentration dependent fashion by the presence of Erwinia carotovora culture filtrate containing cell wall-degrading enzymes (Vidal et al, 1997). […] Total RNA was extracted and the expression of chaperones was determined in relation to PR1.
In example 6 we have shown that the UPR-induced BiP gene expression is additive to the cell wall-degrading enzyme (CDE) response. […] After floating of the leaves for 2.5 h on this medium, RNA was extracted and BiP gene expression was analysed by Northern blotting. […]

[2] = system: PR1 mRNA; test: SA spraying of tobacco plants, Northern blot of PR1 mRNA
Description: as §1
To investigate further similarities and differences in the SA-mediated induction of BiP and PR genes, we tested if the presence of light is required for the induction. The rationale for this experiment was derived from the observation that SA inhibits catalase, resulting in an increase of active oxygen species in the plant, which would then induce PR genes such as PR1 (Chen et al, 1993). […]
as §2, with “PR1. […]” for “PR1.”

[3] = system: BiP protein levels; test: SA spraying of tobacco plants, protein gel blot of BiP; settings: sprayed with SA 5 mM
Description: It has been shown that SA is involved in the induction of PR genes (reviewed by Malamy and Klessig, 1992) and that this signal molecule also induces the expression of ER chaperones (Denecke et al, 1995). We wanted to investigate whether ER chaperone induction is a consequence of the high synthesis rates of PR genes and used BiP as a model system. Tobacco plants were sprayed with SA (5 mM) and the exact timing of the SA-mediated induction of PR-gene PRI was compared to that of BiP. PR1 was chosen as a representative marker for SA-mediated induction of PR genes as its response to SA is faster and more pronounced than that of acidic chitinase, basic chitinase and basic β-1.3 glucanase (Vidal et al, 1997). […] In contrast SA-induced transcription of PR1 starts only after 6-8 hours and continues to accumulate upto 16 hours after treatment. At this time-point, BiP mRNA levels start to decrease again. […]
Fully expanded leaves were collected and quickly frozen in liquid nitrogen. […] Protein concentrations were determined using Bio-Rad protein assay reagent
Proteins in SDS-polyacrylamide gels were transferred onto a nitrocellulose membrane and then blocked with PBS, 0.5% Tween 20, and 5% milk powder for 1 hr. […] Detection of antigen-antibody complexes was performed with enhanced chemiluminescence (ECL, Amersham Corp), and the images were recorded on film.

[4] = SA 5 mM, 6 and 16 hours, dark vs light

Row | Molecule | BiP transcription in SA-treated leaves floated on MS medium with tunicamycin ([1]; 5 mM SA 12 h, then tunicamycin 20 μg/mL 2.5 h) | PR1 induction during SA-treatment in the absence of light [2, 4] | time after which SA-induced transcription of PR1 starts ([2]; sprayed with SA 5 mM) [h] | time up to which PR1 continues to accumulate ([2]; sprayed with SA 5 mM) [h] | accumulation of BiP mRNA transcripts during SA-treatment in the absence of light [1, 4] | time at which BiP mRNA levels reach a plateau ([1]; sprayed with SA 5 mM) [h] | time of treatment after which BiP mRNA levels are induced ([1]; sprayed with SA 5 mM) [h] | time of induction after which a significant increase of BiP protein levels is noticeable [3] [h]
1 | tunicamycin | further induction | – | – | – | – | – | – | –
2 | O=C(O)c1ccccc1O [SA, Salicylic Acid] | – | almost completely abolished | 6 to 8 | ≤ 16 | hardly any reduction | 4 | 2 | 4 to 6
